Measurements as given in patent US8138189B2, “Substituted benzene compounds as modulators of the glucocorticoid receptor” (Hoffman-La Roche Inc., priority 2009, dated 2012).
Each block holds one molecule with its values, some of them ahead of it.

Molecular target: T1, full length human recombinant glucocorticoid receptor (Homo sapiens, UniProt P04150)
T1 construct: partially purified full length human recombinant glucocorticoid receptor; purchased Panvera/Invitrogen PV4302
T1 sequence (P04150 1-777): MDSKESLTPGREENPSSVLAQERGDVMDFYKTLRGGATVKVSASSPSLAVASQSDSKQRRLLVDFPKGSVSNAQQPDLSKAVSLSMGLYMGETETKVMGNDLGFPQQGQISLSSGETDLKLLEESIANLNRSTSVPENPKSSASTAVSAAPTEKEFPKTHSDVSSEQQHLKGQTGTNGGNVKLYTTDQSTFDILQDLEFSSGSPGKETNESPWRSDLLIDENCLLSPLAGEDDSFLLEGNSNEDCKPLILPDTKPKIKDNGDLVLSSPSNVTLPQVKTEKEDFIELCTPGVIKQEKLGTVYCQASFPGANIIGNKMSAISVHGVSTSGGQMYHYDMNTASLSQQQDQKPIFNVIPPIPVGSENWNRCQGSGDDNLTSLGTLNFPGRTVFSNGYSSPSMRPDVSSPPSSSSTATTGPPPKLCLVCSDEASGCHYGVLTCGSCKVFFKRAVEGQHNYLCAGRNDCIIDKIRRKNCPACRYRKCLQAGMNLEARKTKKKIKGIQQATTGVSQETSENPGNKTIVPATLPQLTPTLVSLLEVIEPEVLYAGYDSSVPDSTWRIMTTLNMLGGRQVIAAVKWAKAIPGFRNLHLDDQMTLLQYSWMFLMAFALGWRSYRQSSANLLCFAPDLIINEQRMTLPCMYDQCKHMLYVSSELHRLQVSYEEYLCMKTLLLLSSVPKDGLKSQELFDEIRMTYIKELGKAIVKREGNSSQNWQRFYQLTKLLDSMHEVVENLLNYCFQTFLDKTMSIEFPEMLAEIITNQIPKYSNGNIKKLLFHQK
Assay: Glucocorticoid Receptor Binding Assay (fluorescence polarization competitor assay, Fluormone GS Far Red tracer)
Procedure: Glucocorticoid Receptor Binding Assay
The ability of the substances to bind to the glucocorticoid receptor was determined with the help of a commercial Glucocorticoid Receptor Competitor Assay far red kit provided by Panvera/Invitrogen (PV4302). This kit is used as provided by the supplier. It contains some partially purified full length human recombinant glucocorticoid receptor, a coactivator related GR stabilizing peptide, a tight-binding fluorescent GR ligand Fluormone™ GS Far Red as labeled tracer and a screening buffer. All reagents are prepared and the assay is run according to the recommendations of the kit manufacturer.
Briefly, the GR stabilizing peptide and the human recombinant glucocorticoid receptor are both diluted with the screening buffer (pH 7.4) and are gently mixed (no vortexing) just before the assay and kept on ice until use. The fluorescent-labeled ligand is also diluted with the screening buffer just before the assay and kept on ice until use. The substances to test are pre-diluted in pure DMSO then some water is added to get an intermediate 4.2% DMSO stock solution. Ten microliter of the intermediate stock solution is gently mixed with 5 μl of diluted fluorescent-labeled ligand and 5 μl of diluted human recombinant glucocorticoid receptor in a 384-well plate (low volume, ultraclear, glass plate from Greiner ref 788896). The plate is centrifuged, sealed and incubated for 3 hours at 22° C. in the dark. The polarized fluorescence is measured with a Zeiss-HTS reader or any equivalent equipment (610-660 nm).
All compounds were tested to determine IC50 in a serial dilution experiment. The concentration at which 50% inhibition of the fluorescent GR ligand Fluormone™ GS Far Red is obtained (the IC50) is determined after fitting with a sigmoidal dose-response model of a plot of the logarithm of the concentration versus percent inhibition measured for the different concentrations. Ki's were calculated from IC50 based on Cheng-Prusoff equation (Cheng, Y, Prusoff, W H (1973) Biochem Pharmacol 22, 3099-3108): Ki=IC50/[1+D/Kd] wherein D is the concentration of the fluorescent ligand and Kd is the binding constant for the fluorescent ligand binding to the receptor under the conditions used in the competition experiment.

SMILES: CCOC(=O)c1cc(-c2ccc([C@H](C)[C@](O)(c3ccc(=O)n(CC)c3)C(F)(F)F)c(Cl)c2)ccc1F (relative stereo) [Example 183, 3′-Chloro-4′-[2-(1-ethyl-6-oxo-1,6-dihydro-pyridin-3-yl)-3,3,3-trifluoro-2-hydroxy-1-methyl-propyl]-4-fluoro-biphenyl-3-carboxylic acid ethyl ester]
Ki: 7.5 nM

SMILES: CCn1cc([C@@](O)([C@@H](C)c2ccc(-c3ccc(C(=O)O)c(F)c3)cc2Cl)C(F)(F)F)ccc1=O (relative stereo) [Example 186, 3′-Chloro-4′-[2-(1-ethyl-6-oxo-1,6-dihydro-pyridin-3-yl)-3,3,3-trifluoro-2-hydroxy-1-methyl-propyl]-3-fluoro-biphenyl-4-carboxylic acid]
Ki: 68.2 nM

SMILES: CCOC(=O)c1cc(Oc2ccc([C@H](C)[C@](O)(c3cc(C)c(=O)n(C)c3)C(F)(F)F)c(Cl)c2)ccc1Cl (relative stereo) [Example 210, 2-Chloro-5-{3-chloro-4-[2-(1,5-dimethyl-6-oxo-1,6-dihydro-pyridin-3-yl)-3,3,3-trifluoro-2-hydroxy-1-methyl-propyl]-phenoxy}-benzoic acid ethyl ester]
Ki: 2 nM

SMILES: C[C@H](c1ccc(-c2ccc(F)c(C(=O)O)c2)cc1Cl)[C@@](O)(c1cnc2ccccc2c1)C(F)(F)F (relative stereo) [Example 226, 3′-Chloro-4-fluoro-4′-(3,3,3-trifluoro-2-hydroxy-1-methyl-2-quinolin-3-yl-propyl)-biphenyl-3-carboxylic acid]
Ki: 24.4 nM

SMILES: C[C@H](c1ccc(Oc2ncc(C(=O)O)cc2Cl)cc1Cl)[C@@](O)(c1ccc2nccnc2c1)C(F)(F)F (relative stereo) [Example 227, 5-Chloro-6-[3-chloro-4-(3,3,3-trifluoro-2-hydroxy-1-methyl-2-quinoxalin-6-yl-propyl)-phenoxy]-nicotinic acid]
Ki: 14.3 nM

SMILES: Cc1cc([C@](O)([C@H](C)c2ccc(Oc3ncc(C(=O)O)cc3Cl)cc2Cl)C(F)(F)F)cnc1C#N (relative stereo) [Example 231, 5-Chloro-6-{3-chloro-4-[2-(6-cyano-5-methyl-pyridin-3-yl)-3,3,3-trifluoro-2-hydroxy-1-methyl-propyl]-phenoxy}-nicotinic acid]
Ki: 1.7 nM

SMILES: Cc1cc(C(=O)O)cnc1Oc1ccc([C@H](C)[C@](O)(c2cc(C)c(=O)n(C)c2)C(F)(F)F)c(Cl)c1 (relative stereo) [Example 252, 6-{3-Chloro-4-[2-(1,5-dimethyl-6-oxo-1,6-dihydro-pyridin-3-yl)-3,3,3-trifluoro-2-hydroxy-1-methyl-propyl]-phenoxy}-5-methyl-nicotinic acid]
Ki: 1.1 nM

SMILES: COC(=O)c1cnc(Oc2ccc([C@H](C)[C@](O)(c3cc(C)c(=O)n(C)c3)C(F)(F)F)c(Cl)c2)nc1 (relative stereo) [Example 253, 2-{3-Chloro-4-[2-(1,5-dimethyl-6-oxo-1,6-dihydro-pyridin-3-yl)-3,3,3-trifluoro-2-hydroxy-1-methyl-propyl]-phenoxy}-pyrimidine-5-carboxylic acid methyl ester]
Ki: 1.5 nM

The remaining molecules from weak to strong by Ki, led by results:

Ki: 24.3 nM
SMILES: COC(=O)c1cnc(Oc2ccc([C@@H](C)[C@@](O)(c3ccc(=O)n(C)c3)C(F)(F)F)c(Cl)c2Cl)cn1 (relative stereo) [Example 237, 5-{2,3-Dichloro-4-[3,3,3-trifluoro-2-hydroxy-1-methyl-2-(1-methyl-6-oxo-1,6-dihydro-pyridin-3-yl)-propyl]-phenoxy}-pyrazine-2-carboxylic acid methyl ester]

Ki: 14.5 nM
SMILES: CCOC(=O)C(C)(C)Oc1ccc([C@H](C)[C@](O)(c2ccc(=O)n(C)c2)C(F)(F)F)c(Cl)c1Cl (relative stereo) [Example 239, 2-{2,3-Dichloro-4-[3,3,3-trifluoro-2-hydroxy-1-methyl-2-(1-methyl-6-oxo-1,6-dihydro-pyridin-3-yl)-propyl]-phenoxy}-2-methyl-propionic acid ethyl ester]

Ki: 11.2 nM
SMILES: Cc1cc([C@](O)([C@H](C)c2ccc(-c3ccc(C(=O)O)c(F)c3)cc2Cl)C(F)(F)F)sc1C#N (relative stereo) [Example 229, 3′-Chloro-4′-[2-(5-cyano-4-methyl-thiophen-2-yl)-3,3,3-trifluoro-2-hydroxy-1-methyl-propyl]-3-fluoro-biphenyl-4-carboxylic acid]

Ki: 5.5 nM
SMILES: COC(=O)c1ccc(Oc2ccc(Cl)c([C@H](C)[C@](O)(c3ccc(=O)n(C)c3)C(F)(F)F)c2)cc1Cl (relative stereo) [Example 189, 2-Chloro-4-{4-chloro-3-[3,3,3-trifluoro-2-hydroxy-1-methyl-2-(1-methyl-6-oxo-1,6-dihydro-pyridin-3-yl)-propyl]-phenoxy}-benzoic acid methyl ester]

Ki: 2.9 nM
SMILES: COC(=O)c1ccc(Oc2ccc([C@H](C)[C@](O)(c3cc(C)c(=O)n(C)c3)C(F)(F)F)c(Cl)c2)nc1 (relative stereo) [Example 217, 6-{3-Chloro-4-[2-(1,5-dimethyl-6-oxo-1,6-dihydro-pyridin-3-yl)-3,3,3-trifluoro-2-hydroxy-1-methyl-propyl]-phenoxy}-nicotinic acid methyl ester]

Ki: 1.8 nM
SMILES: COC(=O)c1ccc(Oc2ccc([C@@H](C)[C@@](O)(c3ccc(=O)n(C)c3)C(F)(F)F)c(Cl)c2Cl)cc1 (relative stereo) [Example 197, 4-{2,3-Dichloro-4-[3,3,3-trifluoro-2-hydroxy-1-methyl-2-(1-methyl-6-oxo-1,6-dihydro-pyridin-3-yl)-propyl]-phenoxy}-benzoic acid methyl ester]

Ki: 1.7 nM
SMILES: Cc1cc([C@@](O)([C@@H](C)c2ccc(Oc3ccc(C(=O)O)cc3C(F)(F)F)cc2Cl)C(F)(F)F)cn(C)c1=O (single isomer, unassigned) [Example 219, 4-{3-Chloro-4-[2-(1,5-dimethyl-6-oxo-1,6-dihydro-pyridin-3-yl)-3,3,3-trifluoro-2-hydroxy-1-methyl-propyl]-phenoxy}-3-trifluoromethyl-benzoic acid]

Ki: 1.3 nM
SMILES: COC(=O)c1cnc(Oc2ccc([C@H](C)[C@](O)(c3cc(C)c(=O)n(C)c3)C(F)(F)F)c(Cl)c2)cc1C(F)(F)F (relative stereo) [Example 205, 6-{3-Chloro-4-[2-(1,5-dimethyl-6-oxo-1,6-dihydro-pyridin-3-yl)-3,3,3-trifluoro-2-hydroxy-1-methyl-propyl]-phenoxy}-4-trifluoromethyl-nicotinic acid methyl ester]

Ki: 0.4 nM
SMILES: Cc1cc([C@@](O)([C@@H](C)c2ccc(Oc3ccc(C(=O)O)c(Cl)c3)cc2Cl)C(F)(F)F)cn(C)c1=O (relative stereo) [Example 208, 2-Chloro-4-{3-chloro-4-[2-(1,5-dimethyl-6-oxo-1,6-dihydro-pyridin-3-yl)-3,3,3-trifluoro-2-hydroxy-1-methyl-propyl]-phenoxy}-benzoic acid]

Ki: 0.4 nM
SMILES: Cc1cc([C@@](O)([C@@H](C)c2ccc(Oc3ccc(F)c(C(=O)O)c3)cc2Cl)C(F)(F)F)cn(C)c1=O (relative stereo) [Example 213, 5-{3-Chloro-4-[2-(1,5-dimethyl-6-oxo-1,6-dihydro-pyridin-3-yl)-3,3,3-trifluoro-2-hydroxy-1-methyl-propyl]-phenoxy}-2-fluoro-benzoic acid]

Ki: 0.2 nM
SMILES: Cc1cc([C@@](O)([C@@H](C)c2ccc(Oc3ccc(C(=O)O)cc3F)cc2Cl)C(F)(F)F)cn(C)c1=O (relative stereo) [Example 216, 4-{3-Chloro-4-[2-(1,5-dimethyl-6-oxo-1,6-dihydro-pyridin-3-yl)-3,3,3-trifluoro-2-hydroxy-1-methyl-propyl]-phenoxy}-3-fluoro-benzoic acid]
